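Grown in 96-well plates, cells were treated for 48 hours with each compound at five concentrations. Insufficient inhibition: endpoint recorded as highest concentration tested. GI50: concentration for 50% inhibition of growth.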 Active and inactive are the calls of the source. No stated cut-off is given here; in the data, active = GI50 up to about 1.1 µM and inactive = higher.
Columns and labels:
Experiment in all cases: NCI anticancer screen, dose series, 48 h
[1] = test system: OVCAR-3
[2] = test system: UACC-257
[3] = test system: NCI-H522
[4] = test system: PC-3
[5] = test system: MDA-N
[6] = test system: SW-620
[7] = test system: NCI-H460
[8] = test system: UO-31
[9] = test system: SK-MEL-2
[10] = test system: T47D
[11] = test system: KM12
[12] = test system: LOX IMVI
[13] = test system: IGROV-1
[14] = test system: NCI-H23
[15] = test system: MDA-MB-231
[16] = test system: HL-60
[17] = test system: U-251
[18] = test system: RPMI-8226
[19] = test system: CAKI-1

Structure (SMILES) | GI50 [1] | GI50 [2] | GI50 [3] | GI50 [4] | GI50 [5] | GI50 [6] | GI50 [7] | GI50 [8] | GI50 [9] | GI50 [10] | GI50 [11] | GI50 [12] | GI50 [13] | GI50 [14] | GI50 [15] | GI50 [16] | GI50 [17] | GI50 [18] | GI50 [19]
CN(C)c1ncnc2c1ncn2CCn1cnc2c(N(C)C)ncnc21 | > 100 µM (inactive) | > 100 µM (inactive) | > 100 µM (inactive) | > 100 µM (inactive) | > 100 µM (inactive) | > 100 µM (inactive) | > 100 µM (inactive) | > 100 µM (inactive) | > 100 µM (inactive) | > 100 µM (inactive) | > 100 µM (inactive) | > 100 µM (inactive) | > 100 µM (inactive) | > 100 µM (inactive) | > 100 µM (inactive) | > 100 µM (inactive) | > 100 µM (inactive) | > 100 µM (inactive) | > 100 µM (inactive)
CC(C)(C)CNCCO | > 100 µM (inactive) | > 100 µM (inactive) | > 100 µM (inactive) | > 100 µM (inactive) | > 100 µM (inactive) | > 100 µM (inactive) | > 100 µM (inactive) | > 100 µM (inactive) | > 100 µM (inactive) | > 100 µM (inactive) | > 100 µM (inactive) | > 100 µM (inactive) | > 100 µM (inactive) | > 100 µM (inactive) | > 100 µM (inactive) | > 100 µM (inactive) | > 100 µM (inactive) | > 100 µM (inactive) | > 100 µM (inactive)
CN(C1=NS(=O)(=O)N=C(N(C)c2ccccc2)O1)c1ccccc1 | 20.3 µM (inactive) | 19.1 µM (inactive) | 18.5 µM (inactive) | > 100 µM (inactive) | 15 µM (inactive) | 14 µM (inactive) | 21.8 µM (inactive) | 21.4 µM (inactive) | 16.4 µM (inactive) | 21.2 µM (inactive) | 17.8 µM (inactive) | 13.3 µM (inactive) | 23.3 µM (inactive) | 11.5 µM (inactive) | 17.6 µM (inactive) | 13.6 µM (inactive) | 16 µM (inactive) | 16.9 µM (inactive) | 22.1 µM (inactive)
C=CCCC(=O)CC(O)(C(F)(F)F)C(F)(F)F | > 100 µM (inactive) | > 100 µM (inactive) | > 100 µM (inactive) | > 100 µM (inactive) | > 100 µM (inactive) | > 100 µM (inactive) | > 100 µM (inactive) | > 100 µM (inactive) | > 100 µM (inactive) | > 100 µM (inactive) | > 100 µM (inactive) | > 100 µM (inactive) | > 100 µM (inactive) | > 100 µM (inactive) | > 100 µM (inactive) | > 100 µM (inactive) | > 100 µM (inactive) | > 100 µM (inactive) | > 100 µM (inactive)
COc1cccc(CCn2c(N)c(-c3ccccc3)c3ccc([N+](=O)[O-])cc3c2=O)c1 | 2.58 µM (inactive) | 17.3 µM (inactive) | 2.93 µM (inactive) | 9.53 µM (inactive) | 17.5 µM (inactive) | 25.7 µM (inactive) | 13.6 µM (inactive) | 9.02 µM (inactive) | 16.7 µM (inactive) | 2.05 µM (inactive) | 4.36 µM (inactive) | 2.43 µM (inactive) | 5.6 µM (inactive) | 3.16 µM (inactive) | 8.45 µM (inactive) | 5.47 µM (inactive) | 9.29 µM (inactive) | 0.499 µM (active) | 6.3 µM (inactive)
N#Cc1ccc(OCc2nc3cc(C(F)(F)F)ccc3nc2-c2ccccc2)cc1 | > 100 µM (inactive) | > 100 µM (inactive) | 7.62 µM (inactive) | > 100 µM (inactive) | > 100 µM (inactive) | > 100 µM (inactive) | > 100 µM (inactive) | > 100 µM (inactive) | > 100 µM (inactive) | > 100 µM (inactive) | > 100 µM (inactive) | > 100 µM (inactive) | > 100 µM (inactive) | > 100 µM (inactive) | 51.1 µM (inactive) | 3.53 µM (inactive) | > 100 µM (inactive) | > 100 µM (inactive) | > 100 µM (inactive)
O=S(=O)(NNc1ccccc1)c1ccccc1 | 11.3 µM (inactive) | 27.5 µM (inactive) | 8.95 µM (inactive) | 8.15 µM (inactive) | 12.2 µM (inactive) | 26.3 µM (inactive) | 3.96 µM (inactive) | 10.6 µM (inactive) | 3.26 µM (inactive) | 12.6 µM (inactive) | 1.66 µM (inactive) | 0.834 µM (active) | 10.2 µM (inactive) | 25.5 µM (inactive) | 1.36 µM (inactive) | 1.66 µM (inactive) | 16.2 µM (inactive) | 3.71 µM (inactive) | 1.28 µM (inactive)
O=C(/C=C\c1ccc([N+](=O)[O-])cc1)c1ccccc(=O)c1O | 2.49 µM (inactive) | 1.77 µM (inactive) | 1.39 µM (inactive) | 1.95 µM (inactive) | 2.37 µM (inactive) | 1.3 µM (inactive) | 0.518 µM (active) | 1.02 µM (active) | 1.89 µM (inactive) | 2.67 µM (inactive) | 1.04 µM (active) | 0.449 µM (active) | 1.14 µM (inactive) | 2.33 µM (inactive) | 3.37 µM (inactive) | 0.538 µM (active) | 1.01 µM (active) | 0.682 µM (active) | 1.32 µM (inactive)
C=C(Cl)COC(=O)Nc1cccc(Cl)c1 | 28.1 µM (inactive) | 31 µM (inactive) | 25.1 µM (inactive) | 29 µM (inactive) | 34.2 µM (inactive) | 39.3 µM (inactive) | 32.6 µM (inactive) | 12 µM (inactive) | 22.5 µM (inactive) | 22.9 µM (inactive) | 31.6 µM (inactive) | 35.6 µM (inactive) | 26.7 µM (inactive) | 30.4 µM (inactive) | 40.4 µM (inactive) | 24.4 µM (inactive) | 34.4 µM (inactive) | 39.4 µM (inactive) | 31.9 µM (inactive)
CCCCCC1=C2C(c3ccc(OC)cc3)=C(N)C(c3ccc(OC)cc3)=C3NC(=O)C(C=C1)C32 (stereo not given) | 57.1 µM (inactive) | > 100 µM (inactive) | 22.4 µM (inactive) | 27.7 µM (inactive) | 61.4 µM (inactive) | 49.2 µM (inactive) | 28.1 µM (inactive) | 54.3 µM (inactive) | > 100 µM (inactive) | 70.1 µM (inactive) | 59.6 µM (inactive) | 33.9 µM (inactive) | 28.1 µM (inactive) | 48.4 µM (inactive) | > 100 µM (inactive) | > 100 µM (inactive) | 98.2 µM (inactive) | 33 µM (inactive) | 36 µM (inactive)
CN(CCCNCc1ccccn1)Cc1ccccc1O | 24.9 µM (inactive) | 24.3 µM (inactive) | 56.2 µM (inactive) | 65.3 µM (inactive) | 58.2 µM (inactive) | > 100 µM (inactive) | 7.19 µM (inactive) | 3.73 µM (inactive) | 35.2 µM (inactive) | 34 µM (inactive) | 28.5 µM (inactive) | 23.1 µM (inactive) | 20.2 µM (inactive) | 14.4 µM (inactive) | > 100 µM (inactive) | 2.74 µM (inactive) | 96.8 µM (inactive) | 36.3 µM (inactive) | 42.8 µM (inactive)
Cc1ccc(S(=O)(=O)N(CC(O)COc2ccccc2)c2ccccc2Cl)cc1 (stereo not given) | 19 µM (inactive) | 14.7 µM (inactive) | 12.4 µM (inactive) | 15.9 µM (inactive) | 16.3 µM (inactive) | 17.8 µM (inactive) | 17 µM (inactive) | 12.2 µM (inactive) | 13.7 µM (inactive) | 24.9 µM (inactive) | 14.6 µM (inactive) | 17.3 µM (inactive) | 12.5 µM (inactive) | 14.7 µM (inactive) | 14.6 µM (inactive) | 24.6 µM (inactive) | 14.4 µM (inactive) | 11.5 µM (inactive) | 15.5 µM (inactive)
COC1=CC2(C=CC1=O)CCNC1=C2C(=O)c2nc[nH]c2C1=O (stereo not given) | 41.8 µM (inactive) | > 100 µM (inactive) | 32.3 µM (inactive) | > 100 µM (inactive) | > 100 µM (inactive) | > 100 µM (inactive) | > 100 µM (inactive) | > 100 µM (inactive) | > 100 µM (inactive) | > 100 µM (inactive) | > 100 µM (inactive) | > 100 µM (inactive) | > 100 µM (inactive) | > 100 µM (inactive) | > 100 µM (inactive) | > 100 µM (inactive) | > 100 µM (inactive) | > 100 µM (inactive) | > 100 µM (inactive)
COC(=O)C1Cc2ccc(C)cc2C1=O (stereo not given) | > 100 µM (inactive) | > 100 µM (inactive) | > 100 µM (inactive) | > 100 µM (inactive) | > 100 µM (inactive) | > 100 µM (inactive) | > 100 µM (inactive) | > 100 µM (inactive) | > 100 µM (inactive) | > 100 µM (inactive) | 83.4 µM (inactive) | > 100 µM (inactive) | > 100 µM (inactive) | > 100 µM (inactive) | > 100 µM (inactive) | 25.8 µM (inactive) | > 100 µM (inactive) | > 100 µM (inactive) | > 100 µM (inactive)
CC1(C)[C@@H]2C[C@H]1c1cnc(-c3ccccn3)cc1C2[C@@H]1c2cc(-c3ccccn3)ncc2[C@@H]2C[C@H]1C2(C)C (stereo not given in full) | 43.6 µM (inactive) | 87.9 µM (inactive) | 25.3 µM (inactive) | 73.6 µM (inactive) | > 100 µM (inactive) | 84.3 µM (inactive) | 2.77 µM (inactive) | 24.3 µM (inactive) | 68.9 µM (inactive) | 55.1 µM (inactive) | 33.3 µM (inactive) | > 100 µM (inactive) | 25.2 µM (inactive) | 41.2 µM (inactive) | > 100 µM (inactive) | 36.4 µM (inactive) | 36.1 µM (inactive) | 31.7 µM (inactive) | 70.5 µM (inactive)
